Structures are written as SMILES. pEC50, pKi: −log10 of the molar value. Where only a bound is given, the exact number is not on record here.

The test system of series [1] is Male mice homozygous for the obese spontaneous mutation, Lep^ob. Put plainly: Oral administration in leptin-deficient obese mice, body weight. As to conditions: 30 mg/kg twice daily for six days. The format is in vivo, mouse. On the procedure:
Male mice homozygous for the obese spontaneous mutation, Lep^ob, with resulting leptin protein deficiency, were individually housed with free access to feed and drinking water. All animals were sham-dosed twice daily for five days prior to initial drug administration, utilizing a vehicle dose of 3.2% mannitol and […] tris(hydroxymethyl)aminomethane at pH 7.4. On day 6 a cohort of the mice received compound 7.1 dissolved into the vehicle twice daily for six consecutive days at a dose of 30 mg/kg. Body weight of animals was measured daily, with data analyzed as the percent change from baseline of each individual animal, where baseline was defined as the average weight during the first three days of sham dosing. The averaged percent change from baseline of a vehicle group was then subtracted from each value to correct for continued weight gain or other study-wide factors. The change in body weight is shown in FIG. 3 starting on study day 1, the first day of administration of compound 7.1.

For series [2], the target named is T1, MC4r (Homo sapiens, UniProt P32245). The series can be described thus: cAMP assay hMC4r (human recombinant CHO cells, NDP-α-MSH reference). The format is cell-based. More on the design: expressed in transfected cells; host or cells: CHO. On the procedure: (§1) Melanocortin receptor binding and function of Compound 7.1 was tested. Ki binding values (nM) were calculated utilizing the percent inhibit of the binding of iodine-125 labeled NDP-α-MSH against B16-F1 cells for mMC1r, and human recombinant CHO cells for hMC3r, hMC4r and hMC5r, with the inhibition constant calculated using the Cheng Prusoff equation. Functional results (EC50 and efficacy) were calculated utilizing cAMP assays with NDP-α-MSH for mMC1r, hMC3r and hMC4r, ACTH for hMC2r, and α-MSH for hMC5r for agonist measures, with the same target cells for melanocortin receptors mMC1r, hMC3r, hMC4r and hMC5r, and human recombinant Cloudman M3 cells for hMC2r.
On the technique in general: Cyclic AMP is a second messenger, typically raised through Gs and lowered through Gi signalling.

In a further series the test system is C57BL/6 male DIO mice. Put plainly: Body weight and food intake in vivo study in diet induced obese mice. Details: species or system mouse. On the procedure: Compound 7.1 was assessed in a body weight and food intake in vivo study in diet induced obese […] mice. C57BL/6 male DIO mice were utilized, that were 17 weeks of age on arrival. Animals were pre-conditioned on a high-fat diet for 11 weeks by Jackson Labs. […] Animals were single housed within a limited access rodent facility, and provided ad libitum with a commercial rodent diet and free access to drinking water. Animals were randomized into five groups, a vehicle group, three dose levels of compound 7.1 (3 mg/kg, 10 mg/kg and 30 mg/kg), and Peptide A, a positive control cyclic peptide of the formula Ac-Arg-cyclo(Orn-Asn-D-Phe-Arg-Trp-Glu)-NH2. Following three days of sham dosing, animals were dosed for three days, with vehicle or Compound 7.1 dosed orally once daily at within one hour of lights out in the AM, and Peptide A dosed by subcutaneous injection twice daily within one hour before lights out and six hours after lights out. Body weights were measured one hour prior to lights out, and feed weights were measured both one hour prior to lights out and six hours post lights out.
*p<0.05 vs. sham (vehicle control) using two-way ANOVA followed by Dunnett's post-test.
**p<0.01 vs sham (vehicle control) using two-way ANOVA followed by Dunnett's post-test.

Another series concerns MC4r (−/−) mice. The series can be described thus: Oral administration in MC4r knockout mice, feed intake and body weight. The format is in vivo, mouse. On the procedure:
Feed intake and body weight was evaluated in MCr4 knockout (MC4r−/−) mice (Jackson Laboratories) compared to C57Bl/6 DIO mice. […] Feed weights were taken at time 0, 2, 6 and 24 hours post lights out. […] The change in body weight is shown in FIG. 4 starting on study day 5, the first day of administration of compound 7.1. […] Additionally, there was a statistically significant mean difference, 2.8%, 95% Cl (1.281, 4.253), and p value <0.0001 between DIO mice receiving compound 7.1 and MC4r (−/−) receiving compound 7.1.

The target of a further series is T2, hMC5r (Homo sapiens, UniProt P33032).
T2 construct: expressed in transfected cells; host or cells: CHO
The series can be described thus: cAMP assay hMC5r (human recombinant CHO cells, α-MSH reference). The format is cell-based. How it is done: as §1

The target in series [3] is T1, MC4r. The series can be described thus: Competitive inhibition binding assay, MC4r. More on the design: expressed in transfected cells; host or cells: HEK-293 (membrane homogenates). As to conditions: binding studies. How it is done: A competitive inhibition binding assay is performed using membrane homogenates prepared from HEK-293 cells that express recombinant hMC1ra, hMC4r, hMC3r, or hMC5r, and from B16-F10 mouse melanoma cells (containing endogenous MC1r). In the examples that follow, all values are for human recombinant receptors unless otherwise noted. Assays are performed in 96 well GF/B Millipore multiscreen filtration plates (MAFB NOB10) pre-coated with 0.5% bovine serum albumin (Fraction V). […] After incubation for 60 to 90 minutes at 37° C., the assay mixture is filtered and the membranes washed three times with ice-cold buffer. Filters are dried and counted in a gamma counter for bound radioactivity.
Maximal specific binding (100%) is defined as the difference in radioactivity (cpm) bound to cell membranes in the absence and presence of 1 μM NDP-α-MSH. […] Each assay is conducted in duplicate or triplicate and the actual mean values are described, with results less than 0% reported as 0%. Ki values for test compounds are determined using Graph-Pad Prism® curve-fitting software.
Competitive Binding Assay Using Eu-NDP-α-MSH. Alternatively, a competitive inhibition binding assay is performed employing Eu-NDP-α-MSH (PerkinElmer Life Sciences catalog No. AD0225) with determination by time-resolved fluorometry (TRF) of the lanthanide chelate. […] After incubation for 90 minutes at 37° C., the reaction was stopped by filtration over Acro Well 96-well filter plates (Pall Life Sciences). The filter plates were washed 4 times with 200 μL of ice-cold phosphate-buffered saline. DELFIA Enhancement solution (PerkinElmer Life Sciences) was added to each well. The plates were incubated on a shaker for 15 minutes and read at 340 nm excitation and 615 nm emission wavelengths. Each assay was conducted in duplicate and mean values were utilized. Ki values were determined by curve-fitting with Graph-Pad Prism® software using a one-site fixed-slope competition binding model.

In series [4] the target is T3, hMC3r (Homo sapiens, UniProt P41968).
T3 construct: expressed in transfected cells; host or cells: CHO
The series can be described thus: Binding of iodine-125 labeled NDP-α-MSH, human recombinant CHO cells, hMC3r. On the procedure: as §1

Series [5] has as its target T3, hMC3r. Put plainly: cAMP assay hMC3r (human recombinant CHO cells, NDP-α-MSH reference). The format is cell-based. On the procedure: as §1
Series [6] can be described thus: Plasma concentrations following oral administration in Sprague-Dawley rats. The format is in vivo, rat. The note with it: oral 30 mg/kg. How it is done:
Plasma samples were measured at 15 minutes (2 animals) and 30 minutes, 1 hour, 2 hours, 4 hours, 8 hours and 24 hours (3 animals) post oral administration.

The target in another series is T4, hMC2r (Homo sapiens, UniProt Q01718).
T4 construct: expressed in transfected cells; host or cells: Cloudman M3
Put plainly: cAMP assay hMC2r (human recombinant Cloudman M3 cells, ACTH reference). The format is cell-based. How it is done: as §1

T1 sequence (P32245 whole entry): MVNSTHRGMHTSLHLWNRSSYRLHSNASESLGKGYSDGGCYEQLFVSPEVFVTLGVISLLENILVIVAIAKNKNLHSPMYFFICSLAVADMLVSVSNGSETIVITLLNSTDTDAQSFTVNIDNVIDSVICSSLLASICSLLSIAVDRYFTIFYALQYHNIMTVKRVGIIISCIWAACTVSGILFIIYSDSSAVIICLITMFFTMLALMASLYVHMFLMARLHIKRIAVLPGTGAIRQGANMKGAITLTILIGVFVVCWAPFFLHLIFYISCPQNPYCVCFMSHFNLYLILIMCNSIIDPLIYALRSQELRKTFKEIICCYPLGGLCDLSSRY
T3 sequence (P41968 whole entry): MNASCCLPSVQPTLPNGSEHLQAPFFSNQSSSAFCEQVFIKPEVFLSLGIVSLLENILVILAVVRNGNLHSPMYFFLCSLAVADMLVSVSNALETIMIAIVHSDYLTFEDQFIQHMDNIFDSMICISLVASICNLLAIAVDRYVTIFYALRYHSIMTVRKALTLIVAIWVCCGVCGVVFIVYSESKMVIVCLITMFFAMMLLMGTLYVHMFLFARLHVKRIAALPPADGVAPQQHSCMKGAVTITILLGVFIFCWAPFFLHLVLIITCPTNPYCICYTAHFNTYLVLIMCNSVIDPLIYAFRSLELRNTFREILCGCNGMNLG
T4 sequence (Q01718 whole entry): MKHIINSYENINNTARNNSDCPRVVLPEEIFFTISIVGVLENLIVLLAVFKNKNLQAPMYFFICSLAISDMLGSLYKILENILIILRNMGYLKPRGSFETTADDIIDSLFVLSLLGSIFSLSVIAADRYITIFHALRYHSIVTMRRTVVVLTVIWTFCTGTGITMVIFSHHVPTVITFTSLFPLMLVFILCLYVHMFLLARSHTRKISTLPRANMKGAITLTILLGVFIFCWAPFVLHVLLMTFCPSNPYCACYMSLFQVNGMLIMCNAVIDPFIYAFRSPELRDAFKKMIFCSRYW
T4 sequence (Q9D159 whole entry partner): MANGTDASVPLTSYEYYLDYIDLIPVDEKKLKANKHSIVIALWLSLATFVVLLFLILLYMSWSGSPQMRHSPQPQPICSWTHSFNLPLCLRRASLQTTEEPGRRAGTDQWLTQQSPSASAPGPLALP
T2 sequence (P33032 whole entry): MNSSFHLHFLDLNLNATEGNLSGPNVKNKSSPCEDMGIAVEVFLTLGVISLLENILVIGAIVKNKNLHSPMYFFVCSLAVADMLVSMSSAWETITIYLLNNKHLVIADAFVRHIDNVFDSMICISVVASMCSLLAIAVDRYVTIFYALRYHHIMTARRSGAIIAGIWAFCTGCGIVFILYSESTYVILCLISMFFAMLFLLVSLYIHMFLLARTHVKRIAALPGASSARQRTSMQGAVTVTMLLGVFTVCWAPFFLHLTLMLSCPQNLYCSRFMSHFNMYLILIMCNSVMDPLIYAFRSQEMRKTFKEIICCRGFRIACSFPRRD

As usually defined, the pEC50 is the negative decadic logarithm of the EC50, by convention in mol/L. As usually defined, the pKi is the negative decadic logarithm of the Ki, by convention in mol/L. Usually Cmax stands for the peak of the concentration-time curve. A word on the half-life: it is how long it takes for the measured level to halve. For the molecule `CC(=O)N1CCC(N(CC(C)C)N2CCN(C(=O)[C@@H](Cc3ccc(Cl)cc3)NC(=O)C(C)(C)N)CC2)CC1` [Compound 7.1, N-[(1R)-2-[4-[(1-acetyl-4-piperidyl)-isobutyl-amino]piperazin-1-yl]-1-[(4-chlorophenyl)methyl]-2-oxo-ethyl]-2-amino-2-methyl-propanamide], the “decrease in body weight compared to vehicle controls” value in [1] turned out to be 4.8%. For the same molecule, the pEC50 is 8.22 at MC4r [2], under 6.00 at hMC5r, under 6.00 on hMC3r [5] and under 6.00 at hMC2r. For the same molecule, the “effect on body weight (in words)” value was “body weight loss” in the series on C57BL/6 male DIO mice (3 mg/kg, day 3); “significant body weight loss” in the series with C57BL/6 male DIO mice (daily treatment at 10 mg/kg and 30 mg/kg, day 1 to 3). For the same molecule, the “effect on feed intake at 24 hours post lights out (in words)” value in the series with C57BL/6 male DIO mice (30 mg/kg, entirety of the study, compared with sham animals) is on record as “significantly inhibited feed intake”. For the same molecule, the “notable mean percentage body weight change difference between treated group and vehicle (in words)” value with MC4r (−/−) mice (30 mg/kg twice daily) was “not”. Also, the “food consumption vs vehicle only (in words)” value with MC4r (−/−) mice (30 mg/kg twice daily oral gavage) was “no differences”. The values for the pKi at MC4r [3] and on hMC3r [4] were 8.30 and 5.89, respectively. The Tax in [6] was 2 h. The molecule also showed a Cmax in [6] (rat, plasma) of 780 ng/mL. Moreover, the half-life in series [6] (rat, plasma, read-out: terminal half-life (converted)) is 3.94 h.

The values are drawn from patent US20210198201A1, “Orally Active Melanocortin Receptor-4 Compounds” (Palatin Technologies, Inc., priority 2018, published 2021).
